Blank lines part the entries; values can stand above or below the compound they belong to.
Assays:
[1] = test system: A1 or A2 receptors; assay: comparison of activity across the A1 and A2 adenosine receptor systems (discussion); format: biochemical; settings: result in words
Procedure: (§1) Human platelet, rat pheochromocytoma (PC12) cell, rat fat cell and rat cerebral cortex membranes were prepared as described (4,5,6). Adenylate cyclase activity and binding of [^3H]PIA to cerebral cortex membranes were determined essentially as described (4,5,6).
(§2) KB values for the compounds were determined as described (4). […] EC50 and IC50 values for the agonists were obtained from the concentration-response curves by linear regression after logit-log transformation. KB values of the antagonists were calculated using the Schild equation KB = C/(CR-1), where C denotes the concentration of the competitor and CR the ratio of the EC50 and IC50 values in the presence and absence, respectively, of the competitor. IC50 of the compounds for inhibition of [^3H]PIA binding to cerebral cortex membranes were transformed into Ki values as described (6).

[2] = target: T1, A1 adenosine receptor (Cavia porcellus, UniProt P47745); assay: antagonism of adenosine agonists' reduction in force of contraction of guinea pig atrium; format: cell-based; settings: for antagonism at adenosine receptors in the atria / basal force of contraction in the atria: guinea pig atria; for antagonism at adenosine receptors in the atria: result in words
T1 construct: The left atria from male guinea pigs were isolated; from tissue; host or cells: isolated guinea pig left atrium
T1 sequence (P47745 1-326): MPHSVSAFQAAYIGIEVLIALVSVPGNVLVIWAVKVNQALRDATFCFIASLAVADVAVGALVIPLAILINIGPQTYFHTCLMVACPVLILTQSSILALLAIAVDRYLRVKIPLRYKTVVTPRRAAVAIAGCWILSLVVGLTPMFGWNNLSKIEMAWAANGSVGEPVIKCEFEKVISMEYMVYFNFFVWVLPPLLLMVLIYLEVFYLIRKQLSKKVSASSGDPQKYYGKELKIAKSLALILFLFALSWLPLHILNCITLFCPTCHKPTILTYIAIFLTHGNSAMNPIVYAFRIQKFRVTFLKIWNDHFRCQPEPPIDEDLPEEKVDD
Procedure: The left atria from male guinea pigs were isolated, suspended between two punctate electrodes, and placed in a 20 ml organ bath that contained Krebs-Hensileit solution that was continuously gassed with 95% O2 + 5% CO2 and maintained at 31°C. The resting tension was one gram. Theatria were stimulated electrically at 1 hz, 1 ms duration pulses at supramaximal voltage. The force of contraction was recorded isometrically.
(§3) The ability of the compounds to antagonize the effects of agonists was analyzed using modified Schild plots.

[3] = test system: A2-adenosine receptors; assay: antagonism of adenosine agonists' decrease in contractile tone of guinea pig taenia caecum; format: cell-based; settings: result in words
Procedure: The tissues were suspended in a 20 ml organ bath containing de Jalon's solution that was gassed with 95% O2 + 5% CO2 and maintained at 31°C. The resting tension was 1.5 g. The contractile response was measured isotonically.
as §3

[4] = test system: heart rate and blood pressure; assay: in vivo heart rate and blood pressure in anesthetized rats after adenosine or NECA; settings: urethan-anesthetized rats
From the text: Drug injections were made intravenously through a jugular cannula.

[5] = target: T2, A2 receptors of platelets (Homo sapiens, UniProt P29274); assay: antagonism of NECA-induced stimulation of adenylate cyclase activity of human platelet membranes; format: biochemical; settings: for antagonist potency at the platelet A2 receptor: NECA-induced stimulation of adenylate cyclase, human platelet membranes, result in words
T2 construct: NECA-induced stimulation of adenylate cyclase activity of human platelet membranes; from tissue; host or cells: human platelet membranes
Procedure: as §1, §2
In these cells, A2 receptor-mediated stimulation of adenylate cyclase results in an inhibition of aggregation (5,7).

[6] = target: T3, A2 receptors of rat pheochromocytoma (PC12) cells (Rattus norvegicus, UniProt P30543); assay: antagonism of NECA-induced stimulation of adenylate cyclase activity of PC12 cell membranes; format: biochemical; settings: NECA-stimulated adenylate cyclase, result in words
T3 construct: NECA-induced stimulation of adenylate cyclase activity of the PC12 cells membranes; endogenous in cells; host or cells: rat pheochromocytoma PC12 cell membranes
Procedure: as §1, §2

[7] = target: T4, fat cell A1 receptor (Rattus norvegicus, UniProt P25099); assay: antagonism of R-PIA-induced inhibition of isoproterenol-stimulated adenylate cyclase activity in fat cell membranes; format: biochemical; settings: result in words
T4 construct: from tissue; host or cells: rat fat cell membranes
T4 sequence (P25099 1-326): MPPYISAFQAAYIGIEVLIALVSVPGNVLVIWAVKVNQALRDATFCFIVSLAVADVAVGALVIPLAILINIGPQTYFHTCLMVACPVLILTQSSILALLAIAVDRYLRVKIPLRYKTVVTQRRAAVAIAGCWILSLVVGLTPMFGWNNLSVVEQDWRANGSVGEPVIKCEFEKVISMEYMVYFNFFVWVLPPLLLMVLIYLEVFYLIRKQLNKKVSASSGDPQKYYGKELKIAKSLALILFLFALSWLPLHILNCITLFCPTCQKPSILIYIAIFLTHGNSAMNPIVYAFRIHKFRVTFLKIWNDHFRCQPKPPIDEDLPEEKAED
Procedure: as §1, §2

[8] = target: T5, A1 receptors (Rattus norvegicus, UniProt P25099); assay: inhibition of [^3H]PIA binding to rat cerebral cortex membranes; settings: result in words
T5 construct: from tissue; host or cells: rat cerebral cortex membranes
T5 sequence (P25099 1-326): T4 sequence (P25099 1-326)
Procedure: as §1, §2

[9] = target: T6, A1 or A2 receptors (Rattus norvegicus, UniProt P25099); assay: comparison of activity across the A1 and A2 adenosine receptor systems (discussion); format: biochemical; settings: test system not specified
T6 sequence (P25099 1-326): T4 sequence (P25099 1-326)
Procedure: as §1, §2

[10] = affinity constants, guinea pig left atria, modified Schild plots

T2 sequence (P29274 whole entry): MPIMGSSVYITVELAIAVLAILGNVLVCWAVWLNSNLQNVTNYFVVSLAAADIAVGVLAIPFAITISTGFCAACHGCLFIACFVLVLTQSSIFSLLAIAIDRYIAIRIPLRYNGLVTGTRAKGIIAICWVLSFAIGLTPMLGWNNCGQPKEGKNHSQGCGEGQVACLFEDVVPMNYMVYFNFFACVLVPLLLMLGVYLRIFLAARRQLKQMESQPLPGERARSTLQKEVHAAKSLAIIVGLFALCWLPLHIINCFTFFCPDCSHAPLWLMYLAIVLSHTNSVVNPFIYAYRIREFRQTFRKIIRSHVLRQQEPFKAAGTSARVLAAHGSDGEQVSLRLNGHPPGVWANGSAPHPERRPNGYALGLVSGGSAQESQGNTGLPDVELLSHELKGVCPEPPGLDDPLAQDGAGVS
T3 sequence (P30543 whole entry): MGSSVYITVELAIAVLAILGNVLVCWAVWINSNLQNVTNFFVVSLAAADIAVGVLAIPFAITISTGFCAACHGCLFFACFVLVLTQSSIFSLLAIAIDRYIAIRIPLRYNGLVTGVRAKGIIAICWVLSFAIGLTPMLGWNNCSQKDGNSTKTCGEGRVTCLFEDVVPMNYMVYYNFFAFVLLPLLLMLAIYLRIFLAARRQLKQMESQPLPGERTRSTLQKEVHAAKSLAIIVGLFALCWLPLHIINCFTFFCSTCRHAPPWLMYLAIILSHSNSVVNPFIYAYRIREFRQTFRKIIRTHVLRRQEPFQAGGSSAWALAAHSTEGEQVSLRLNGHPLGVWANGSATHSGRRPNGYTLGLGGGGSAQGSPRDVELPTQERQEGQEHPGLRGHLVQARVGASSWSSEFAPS

Compound: COc1cc(CCNc2ncnc3c2ncn3C)cc(OC)c1OC
selectivity for A1 or A2 receptors [1]: selectivity for A2 receptors

Compound: Cn1cnc2c(N[C@@H]3C[C@@H]4CC[C@H]3C4)ncnc21 (relative stereo) [N^6-(endonorbornyl)-9-methyladenine]
effects of subsequently administered adenosine on blood pressure, heart rate and P-R interval ([4]; intravenous): attenuated
heart block caused by adenosine at high doses ([4]; intravenous): substantially reduced

Compound: Nc1ncnc2nc[nH]c12 [Example 1, Adenine, reference compound]
antagonist potency at the platelet A2 receptor [5]: very weak antagonist
basal adenylate cyclase activity ([5]; human platelets, data not shown): does not affect
antagonist potency at the A2 receptor of PC12 cells [6]: very weak antagonist
antagonistic potency at the fat cell A1 receptor [7]: does not affect
Ki-values for inhibition of [^3H]PIA binding [8]: low potency

Compound: Cn1cnc2c(N)ncnc21 [Example 2, 9-methyladenine, reference compound]
antagonist potency at the platelet A2 receptor [5]: more potent than the adenine itself
antagonist potency at the A2 receptor of PC12 cells [6]: equally potent at A2 receptors of human platelets and rat PC12 cells
antagonistic potency at the fat cell A1 receptor [7]: antagonizes the effect of R-PIA
Ki-values for inhibition of [^3H]PIA binding [8]: equally potent at A1 receptors of fat cells and cerebral cortex

Compound: Cn1cnc2c(NC3CCC3)ncnc21 [Example 3, N^6-Cyclobutyl-9-MA]
antagonist potency at the platelet A2 receptor [5]: more potent than 9-methyladenine itself
antagonistic potency at the fat cell A1 receptor [7]: more potent than the parent compound
activity at A1 receptors [9]: the most potent of N^6-substituted 9-methyladenines at A1 receptors

Compound: Cn1cnc2c(NC3CCCC3)ncnc21 [Example 4, N^6-cyclopentyl-9-methyladenine]
antagonist potency at the platelet A2 receptor [5]: more potent than 9-methyladenine itself
antagonist potency at the A2 receptor of PC12 cells [6]: more potent at the platelet A2 receptor than at the PC12 A2 receptor
antagonistic potency at the fat cell A1 receptor [7]: more potent than the parent compound
Ki-values for inhibition of [^3H]PIA binding [8]: more potent than the N^6-methylcyclopentyl analog
Kb [2, 10]: 0.676 µM
antagonism at adenosine receptors in the atria [2]: competitive antagonists
antagonism of the effects of adenosine agonists in relaxing the taenia caecum [3]: did not competitively antagonize
activity at A1 receptors [9]: the most potent of N^6-substituted 9-methyladenines at A1 receptors

Compound: Cn1cnc2c(NC3(C)CCCC3)ncnc21 [Example 5, N^6-1-methylcyclopentyl-9-methyladenine]
antagonist potency at the platelet A2 receptor [5]: less potent than the parent cyclopentyl analog
antagonist potency at the A2 receptor of PC12 cells [6]: reduces potency
antagonistic potency at the fat cell A1 receptor [7]: less potent than the N^6-cyclopentyl analog
activity at A1 receptors [9]: reduces activity at A1 receptors

Compound: Cn1cnc2c(NC3CCCCC3)ncnc21 [Example 6, N^6-Cyclohexyl-9-MA]
antagonist potency at the platelet A2 receptor [5]: more potent than 9-methyladenine itself
antagonistic potency at the fat cell A1 receptor [7]: more potent than the parent compound
activity at A1 receptors [9]: the most potent of N^6-substituted 9-methyladenines at A1 receptors

Compound: CNc1ncnc2c1ncn2C [Example 7, N^6-Methyl-9-MA]
antagonist potency at the platelet A2 receptor [5]: much less potent than 9-methyladenine
antagonistic potency at the fat cell A1 receptor [7]: less potent than 9-methyladenine

Compound: CCC(CC)Nc1ncnc2c1ncn2C [Example 8, N^6-3-pentyl-9-methyladenine]
antagonist potency at the platelet A2 receptor [5]: more potent
antagonist potency at the A2 receptor of PC12 cells [6]: more potent at the platelet A2 receptor than at the PC12 A2 receptor
antagonistic potency at the fat cell A1 receptor [7]: more potent than the parent compound
Kb [2, 10]: 3.98 µM
basal force of contraction in the atria [2]: produced increases
antagonism at adenosine receptors in the atria [2]: competitive antagonists
antagonism of the effects of adenosine agonists in relaxing the taenia caecum [3]: did not competitively antagonize

Compound: Cn1c(=O)c2[nH]c(-c3ccccc3)nc2n(C)c1=O [Example 8-PT, 8-phenyltheophylline, reference compound]
antagonism of the effects of adenosine agonists in relaxing the taenia caecum [3]: did antagonize the effects of agonists at low concentrations

Compound: Cn1cnc2c(Nc3ccccc3)ncnc21 [Example 9, N^6-Phenyl-9-MA]
antagonist potency at the platelet A2 receptor [5]: equipotent to 9-methyladenine
antagonist potency at the A2 receptor of PC12 cells [6]: more potent at the platelet A2 receptor than at the PC12 A2 receptor
antagonistic potency at the fat cell A1 receptor [7]: more potent than 9-methyladenine

Compound: Cn1cnc2c(Nc3ccccc3F)ncnc21 [Example 10, N^6-2-Fluorophenyl-9-MA]
antagonist potency at the platelet A2 receptor [5]: increases potency
antagonistic potency at the fat cell A1 receptor [7]: more potent than 9-methyladenine

Compound: Cn1cnc2c(NCc3ccccc3)ncnc21 [Example 11, N^6-benzyl-9-methyladenine]
antagonist potency at the platelet A2 receptor [5]: less potent than 9-methyladenine
activity at A1 receptors [9]: modest activity

Continued, in another order:

antagonism at adenosine receptors in the atria [2]: competitive antagonists
antagonism at adenosine receptors in the atria ([2]; listed as Ex. 22): the most potent antagonist
antagonism of the effects of adenosine agonists in relaxing the taenia caecum [3]: did not competitively antagonize
Compound: Cn1cnc2c(N[C@H]3C[C@H]4CC[C@@H]3C4)ncnc21 (relative stereo) [Example 22, N^6-(endonorbornyl)-9-methyladenine]
NECA-induced decrease in blood pressure ([4]; prior administration): minimally affecting
effects of NECA on the heart ([4]; prior administration): attenuated

antagonist potency at the platelet A2 receptor [5]: less potent than 9-methyladenine
antagonistic potency at the fat cell A1 receptor [7]: much less potent
Ki-values for inhibition of [^3H]PIA binding [8]: very weak antagonists
Compound: Cn1cnc2c(NCCc3ccccc3)ncnc21 [Example 12, N^6-2-Phenethyl-9-MA]

antagonist potency at the platelet A2 receptor [5]: as potent as 9-methyladenine
Ki-values for inhibition of [^3H]PIA binding [8]: very weak antagonists
Compound: COc1cc(CCNc2ncnc3c2ncn3C)cc(OC)c1OC [Example 13, N^6-2-(3,4,5-trimethoxyphenylethyl)-9-methyladenine]

antagonist potency at the platelet A2 receptor [5]: less potent than 9-methyladenine
Compound: Cn1cnc2c(NCCc3cccnc3)ncnc21 [Example 14, N^6-2-(3-pyridylethyl)-9-methyladenine]

antagonist potency at the platelet A2 receptor [5]: somewhat more potent
Compound: Cn1cnc2c(NCCc3ccsc3)ncnc21 [Example 15, N^6-2-(3-thienylethyl)-9-methyladenine]

antagonist potency at the platelet A2 receptor [5]: more potent than the S-isomer
antagonistic potency at the fat cell A1 receptor [7]: more potent than the parent compound
Ki-values for inhibition of [^3H]PIA binding [8]: more potent than the S-isomer
Compound: C[C@H](Cc1ccccc1)Nc1ncnc2c1ncn2C [Example 16, N^6-R-1-Phenyl-2-propyl-9-MA]

antagonistic potency at the fat cell A1 receptor [7]: more potent than the parent compound
Compound: C[C@@H](Cc1ccccc1)Nc1ncnc2c1ncn2C [Example 17, N^6-S-1-Phenyl-2-propyl-9-MA]

antagonistic potency at the fat cell A1 receptor [7]: more potent than 9-methyladenine itself
Compound: Cn1cnc2c(NCCc3ccsc3)ncnc21 [N^6-2-(3-thienylethyl)-9-methyladenine]

pKB [2, 10]: 5.36 ± 0.1
basal force of contraction in the atria [2]: produced increases
antagonism at adenosine receptors in the atria [2]: competitive antagonists
Compound: N^6-4-(-2-thienyl) -3-butyl) -9-MA [Example 23]

Reference: patent EP0383759B1 (Discovery Therapeutics, Inc., priority 1987, dated 1988)
